Experimental data as given in article PMC9556824, “Design, synthesis and computational study of new benzofuran hybrids as dual PI3K/VEGFR2 inhibitors targeting cancer” (Scientific Reports, 2022).
“And” between values parts separate entries of the source, which are not always exact repeats. Identical values can stand only once. Like-named read-outs stand apart in the source and are kept apart here. One block for each compound: values may come before it.

Assays:
[1] = In vitro cytotoxicity against human normal cell line (MTT); assay type: cell-based; conditions: human, WI38, read-out: Average of Relative viability of cells (%)
Text: (§1) The anticancer agent's selectivity for cancer cells is a critical consideration for any researcher, as it can decrease the molecule's adverse effects on normal human cells.

[2] = test system: human lung fibroblast (WI38); assay: as above; assay type: cell-based; conditions: Homo sapiens, WI-38, human normal cell line WI38; mean ± SD, n = 3
Text: as §1

[3] = test system: HePG2, MCF-7, Hela, PC3 cell lines; assay: Antitumor screening using MTT assay, statements across several cell lines; assay type: cell-based, human; conditions: Homo sapiens, PC-3; read-out: IC50 range against HePG and PC3 cell lines
Text: (§3) Hepatocellular carcinoma (HePG2), mammary gland breast cancer (MCF-7), epithelioid carcinoma cervix cancer (Hela), and human prostate cancer were included on the panel (PC3). […] The cell lines were obtained from the American Type Culture Collection (ATCC) through VACSERA, a Cairo-based holding firm for biological goods and vaccines.
(§4) The panel consisted of hepatocellular carcinoma (HePG2), mammary gland breast cancer (MCF-7), epithelioid carcinoma cervix cancer (Hela) and human prostate cancer (PC3). Human lung fibroblast (WI38) was used to assay the cytotoxicity effect on normal cell. The cell lines were obtained from ATCC via Holding company for biological products and vaccines (VACSERA), Cairo, Egypt. The cytotoxic activity was defined as the concentration of the compound that causes 50% growth inhibition compared with the growth of untreated cells.

[4] = test system: human prostate cancer (PC3); assay: Antitumor screening using MTT assay; conditions: Homo sapiens
Text: as §3, §4

[5] = test system: Hepatocellular carcinoma (HePG2); assay: Antitumor screening using MTT assay; assay type: cell-based, human; conditions: Homo sapiens
Text: as §3, §4

Hela cells [6] = assay: Detection of apoptosis (Annexin V-FITC/PI); assay type: cell-based, human
Method: In Hela cells, compound 8 induced an early apoptotic effect with 1.79% at 24 h. Also, the enhanced late apoptotic induction with 14.11% by 83-fold compared to the Hela control cell (0.17%). On other hand, necrotic effect in Hela at 24 h was induced by compounds 8 with 8.81% compared to the control cells (1.15%).
(§2) Annexin V-FITC and PI apoptosis kit were used to detect apoptosis (eBioscience™, San Diego, CA, USA). On a six well plate, Mcf cells were plated at a density of 600,000 cells/ml. The cells were treated with compound 8 at […] after 24 h of incubation. The solvent control consisted of cells developed in medium containing an equivalent volume of DMSO. In accordance with the instructions supplied by the Annexin V-FITC and PI apoptosis kit, the cells were stained with an Annexin V-FITC conjugate and propidium iodide (PI) after 24 h. The percentage of apoptotic, necrotic, and alive cells was then calculated. By using a flow cytometer (NovoCyte, ACEA Biosciences Inc, San Diego, CA, US) and the NovoExpress 1.3.0 software (ACEA Biosciences Inc, San Diego, CA, US), the cells' released fluorescence was examined. Each point on the population plot ("dot plot") corresponds to a single event with a particular fluorescence signal in relation to the axes: Annexin V-FITC green fluorescence.

Hela cells [7] = assay: Cell cycle arrest analysis; assay type: cell-based, human
Method: So, compound 8 was assessed its activity on cell cycle distribution and induction of apoptosis in different phases of Hela cells.
as §2
Researcher : Dr.Omar El-Khouly email : dr.kholy93@gmail.com mob. 01278084495
Assay : Cell Cycle Analysis
Kit used : ab139418_Propidium Iodide Flow Cytometry Kit/BD
Assay samples : Cell culture
code IC50 %G0-G1 %S %G2/M %Pre-G1 Comment
(also on this page, place not known: 0 20 40 60 % OE -G12 /Hela Cont. Hela DNA content %G0-G1 %S %G2/M %Pre-G1)
(1 picture or pasted object on this page, not shown here)

human PI3Kα = human PI3Kα (Homo sapiens, UniProt P42336); assay: Human PI3Kα enzyme inhibition assay (ELISA)
Method: (§5) PI3Kα and VEGFR-2 activity were verified by enzyme-linked immunosorbent assay (ELISA) assay technique. […] Then, the mean absorbance of each group of standard and tested compounds was determined. The standard curve was drawn on log–log paper with the absorbance on the Y-axis and the standard concentration on the X-axis.

[8] = test system: mammary gland breast cancer (MCF-7); assay: Antitumor screening using MTT assay; conditions: Homo sapiens
Text: as §3, §4

[9] = test system: epithelioid carcinoma cervix cancer (Hela); assay: Antitumor screening using MTT assay; conditions: Homo sapiens, HeLa
Text: as §3, §4

human VEGFR-2 = human VEGFR-2 (Homo sapiens, UniProt P35968); assay: Human VEGFR-2 enzyme inhibition assay (ELISA)
Method: as §5

MCF-7 = test system: MCF-7; parameters: method as in PMID 25086915; conditions: read-out: IC50 against MCF-7; cited from earlier work
Hela = test system: Hela; parameters: method as in PMID 25086915; conditions: read-out: IC50 against Hela; cited from earlier work
VEGFR-2 = conditions: read-out: IC50 against VEGFR-2; cited from earlier work
[10] = read-out: Average of Relative viability of cells (%)
[11] = MCF7, read-out: Average of Relative viability of cells (%)

Chain of human PI3Kα (P42336 whole entry): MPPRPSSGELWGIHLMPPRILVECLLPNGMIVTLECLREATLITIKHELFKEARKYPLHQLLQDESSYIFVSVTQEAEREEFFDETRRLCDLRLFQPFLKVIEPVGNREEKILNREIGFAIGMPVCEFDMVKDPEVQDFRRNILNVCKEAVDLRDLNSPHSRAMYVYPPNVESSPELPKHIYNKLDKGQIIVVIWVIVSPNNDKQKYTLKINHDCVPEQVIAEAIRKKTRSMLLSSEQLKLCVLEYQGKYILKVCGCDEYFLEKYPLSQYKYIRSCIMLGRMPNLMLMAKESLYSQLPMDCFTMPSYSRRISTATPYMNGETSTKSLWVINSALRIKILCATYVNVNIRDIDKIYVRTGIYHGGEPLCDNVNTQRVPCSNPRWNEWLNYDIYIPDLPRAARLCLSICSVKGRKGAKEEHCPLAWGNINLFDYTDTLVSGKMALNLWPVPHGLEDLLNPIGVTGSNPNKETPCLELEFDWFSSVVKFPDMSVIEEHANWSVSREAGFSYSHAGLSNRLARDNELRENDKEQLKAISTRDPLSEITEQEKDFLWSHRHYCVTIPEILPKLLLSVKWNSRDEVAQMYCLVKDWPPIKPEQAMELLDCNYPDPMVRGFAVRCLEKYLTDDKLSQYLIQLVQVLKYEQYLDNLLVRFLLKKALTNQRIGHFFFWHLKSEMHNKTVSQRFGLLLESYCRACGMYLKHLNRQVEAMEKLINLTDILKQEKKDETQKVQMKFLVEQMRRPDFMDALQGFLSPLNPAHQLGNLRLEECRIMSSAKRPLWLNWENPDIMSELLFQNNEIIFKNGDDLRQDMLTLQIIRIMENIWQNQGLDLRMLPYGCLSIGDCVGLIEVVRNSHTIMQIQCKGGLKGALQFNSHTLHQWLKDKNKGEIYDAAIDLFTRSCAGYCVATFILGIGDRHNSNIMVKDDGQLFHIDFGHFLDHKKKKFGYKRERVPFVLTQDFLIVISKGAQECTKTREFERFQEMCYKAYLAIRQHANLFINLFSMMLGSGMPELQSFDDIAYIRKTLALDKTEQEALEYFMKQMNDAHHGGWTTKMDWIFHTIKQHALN
Chain of human PI3Kα (P27986 whole entry partner): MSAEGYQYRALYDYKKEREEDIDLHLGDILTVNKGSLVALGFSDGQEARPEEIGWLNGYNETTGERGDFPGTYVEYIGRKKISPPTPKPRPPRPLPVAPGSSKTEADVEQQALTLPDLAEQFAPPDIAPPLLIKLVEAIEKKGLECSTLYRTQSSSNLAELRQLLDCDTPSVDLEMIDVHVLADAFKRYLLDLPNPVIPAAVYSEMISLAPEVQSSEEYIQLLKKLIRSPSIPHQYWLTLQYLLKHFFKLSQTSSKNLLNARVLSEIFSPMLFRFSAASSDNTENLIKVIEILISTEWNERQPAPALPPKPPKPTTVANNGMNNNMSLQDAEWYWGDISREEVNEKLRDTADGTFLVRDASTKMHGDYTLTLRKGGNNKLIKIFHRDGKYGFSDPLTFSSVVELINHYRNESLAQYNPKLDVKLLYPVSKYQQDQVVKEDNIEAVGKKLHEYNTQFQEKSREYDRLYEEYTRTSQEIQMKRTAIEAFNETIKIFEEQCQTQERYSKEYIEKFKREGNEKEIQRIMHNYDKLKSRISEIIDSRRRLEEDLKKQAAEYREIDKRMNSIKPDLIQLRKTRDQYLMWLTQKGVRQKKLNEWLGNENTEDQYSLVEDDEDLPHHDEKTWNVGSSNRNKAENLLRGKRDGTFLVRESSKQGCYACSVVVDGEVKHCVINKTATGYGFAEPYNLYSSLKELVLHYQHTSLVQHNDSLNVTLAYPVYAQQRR
Chain of human VEGFR-2 (P35968 20-1356): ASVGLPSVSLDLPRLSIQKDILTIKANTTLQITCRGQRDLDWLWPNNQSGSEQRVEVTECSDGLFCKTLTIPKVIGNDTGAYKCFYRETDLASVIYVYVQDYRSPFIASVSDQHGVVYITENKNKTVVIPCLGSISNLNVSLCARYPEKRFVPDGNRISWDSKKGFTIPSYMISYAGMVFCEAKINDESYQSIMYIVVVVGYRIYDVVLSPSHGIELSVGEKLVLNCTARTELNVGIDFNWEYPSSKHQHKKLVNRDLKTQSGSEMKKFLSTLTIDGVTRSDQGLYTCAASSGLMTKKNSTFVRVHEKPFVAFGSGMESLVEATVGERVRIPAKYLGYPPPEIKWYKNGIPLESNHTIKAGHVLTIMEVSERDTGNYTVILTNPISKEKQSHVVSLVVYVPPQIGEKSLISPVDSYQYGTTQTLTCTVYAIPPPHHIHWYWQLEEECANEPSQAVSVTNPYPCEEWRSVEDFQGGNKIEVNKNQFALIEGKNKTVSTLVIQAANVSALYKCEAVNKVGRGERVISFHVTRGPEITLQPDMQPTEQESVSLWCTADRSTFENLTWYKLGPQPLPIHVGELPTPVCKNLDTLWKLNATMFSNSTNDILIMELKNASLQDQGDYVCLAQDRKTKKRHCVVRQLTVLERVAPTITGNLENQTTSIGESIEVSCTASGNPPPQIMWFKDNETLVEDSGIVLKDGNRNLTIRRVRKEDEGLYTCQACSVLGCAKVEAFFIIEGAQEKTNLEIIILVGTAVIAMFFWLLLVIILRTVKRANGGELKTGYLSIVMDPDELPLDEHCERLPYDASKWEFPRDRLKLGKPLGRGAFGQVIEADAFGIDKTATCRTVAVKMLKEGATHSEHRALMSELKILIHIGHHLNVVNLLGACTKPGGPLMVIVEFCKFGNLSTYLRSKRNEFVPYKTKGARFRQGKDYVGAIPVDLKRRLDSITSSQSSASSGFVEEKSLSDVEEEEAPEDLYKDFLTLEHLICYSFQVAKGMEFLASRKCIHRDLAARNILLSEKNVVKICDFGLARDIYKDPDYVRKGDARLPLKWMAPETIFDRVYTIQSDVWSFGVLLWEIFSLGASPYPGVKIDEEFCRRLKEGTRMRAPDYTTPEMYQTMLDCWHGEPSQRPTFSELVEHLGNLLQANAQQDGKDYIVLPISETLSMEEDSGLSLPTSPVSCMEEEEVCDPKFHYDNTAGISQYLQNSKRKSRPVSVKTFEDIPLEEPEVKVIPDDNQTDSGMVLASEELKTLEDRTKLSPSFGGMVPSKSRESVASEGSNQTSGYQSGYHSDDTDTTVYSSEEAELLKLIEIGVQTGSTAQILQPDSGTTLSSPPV

melting point: 207 to 209 °C
IC50 [3]: 11000 to 17000 nM
IC50 (human PI3Kα; PI3K-α IC50 ng/ml, supplement lab report): 6.43 nM
IC50 (human PI3Kα; PI3Kα enzymatic IC50 (nM), mean of triplicate): 2.21 ± 0.11 nM
PI3K-α %inh (human PI3Kα; conc 0.1 (unit not given)): 22.1%
PI3K-α %inh (human PI3Kα; conc 1 (unit not given)): 42.7%
PI3K-α %inh (human PI3Kα; conc 10 (unit not given)): 67%
PI3K-α %inh (human PI3Kα; conc 100 (unit not given)): 80.7%
IC50 (human VEGFR-2; VEGFR2 IC50 ng/ml, supplement lab report): 250 nM
IC50 (human VEGFR-2; VEGFR-2 enzymatic IC50 (nM), mean of triplicate): 68 nM and 86 nM
vegfr2 %inh (human VEGFR-2; conc 0.01 (unit not given)): 28.7%
vegfr2 %inh (human VEGFR-2; conc 0.1 (unit not given)): 52.7%
vegfr2 %inh (human VEGFR-2; conc 1 (unit not given)): 75.3%
vegfr2 %inh (human VEGFR-2; conc 10 (unit not given)): 90.4%
SMILES: C/C(=N\NC(=S)Nc1ccc(Cl)cc1)c1cc2ccccc2o1 [Compound 8, (E)-2-(1-(benzofuran-2-yl)ethylidene)-N-(4-chlorophenyl)hydrazine-1-carbothioamide]
viability at 3.125 µM ([1]; WI38 human lung fibroblast cells (normal cell line), Conc. 3.125 µM): 100%
viability at 6.25 µM ([1]; WI38 human lung fibroblast cells (normal cell line), Conc. 6.25 µM): 89.3%
viability at 12.5 µM ([1]; WI38 human lung fibroblast cells (normal cell line), Conc. 12.5 µM): 75.6%
viability at 25 µM ([1]; WI38 human lung fibroblast cells (normal cell line), Conc. 25 µM): 62.7%
viability at 50 µM ([1]; WI38 human lung fibroblast cells (normal cell line), Conc. 50 µM): 48.2%
viability at 100 µM ([1]; WI38 human lung fibroblast cells (normal cell line), Conc. 100 µM): 36.4%
viability at 1.56 µM ([1]; WI38 normal lung fibroblast cells, Conc. 1.56 µM): 100%
IC50 [2]: 48200 ± 2800 nM
viability at 1.56 µM [4, 10]: 100%
viability at 3.125 µM [4, 10]: 93.7%
viability at 6.25 µM [4, 10]: 72.9%
viability at 12.5 µM [4, 10]: 51.6%
viability at 25 µM [4, 10]: 39.2%
viability at 50 µM [4, 10]: 27.1%
viability at 100 µM [4, 10]: 19.3%
IC50 ([4]; read-out: In-vitro cytotoxicity IC50 (µM) PC3): 17.5 ± 1.3 µM
viability at 1.56 µM ([5]; Conc. 1.56 µM, read-out: Average of Relative viability of cells (%)): 99.5%
viability at 3.125 µM ([5]; Conc. 3.125 µM, read-out: Average of Relative viability of cells (%)): 81.4%
viability at 6.25 µM ([5]; Conc. 6.25 µM, read-out: Average of Relative viability of cells (%)): 67.3%
viability at 12.5 µM ([5]; Conc. 12.5 µM, read-out: Average of Relative viability of cells (%)): 24.9%
viability at 25 µM ([5]; Conc. 25 µM, read-out: Average of Relative viability of cells (%)): 29.1%
viability at 50 µM ([5]; Conc. 50 µM, read-out: Average of Relative viability of cells (%)): 20.8%
viability at 100 µM ([5]; Conc. 100 µM, read-out: Average of Relative viability of cells (%)): 13.2%
IC50 ([5]; mean ± SD, n = 3, read-out: In-vitro cytotoxicity IC50 (µM) HePG2): 9.73 ± 0.7 µM
late apoptotic induction (Hela cells [6]): 14.11%
early apoptotic effect (Hela cells [6]; 24 h): 1.79%
necrotic effect (Hela cells [6]; 24 h): 8.81%
late apoptotic induction, fold compared to Hela control cell (Hela cells [6]; control 0.17%): 83 fold
Cell cycle analysis comment (Hela cells [7]): Pre-G1 apoptosis and cell growth arrest at G1/S phase
Cell cycle distribution (%) %G0–G1 (Hela cells [7]): 47.06%
Cell cycle distribution (%) %G2/M (Hela cells [7]): 1.71%
Cell cycle distribution (%) %S (Hela cells [7]; 24 h): 51.23%
Cell cycle distribution (%) %Pre-G1 (Hela cells [7]; after 48 h exposure): 24.71%
Cell cycle analysis comment (Hela cells [7]; listed as OE-G12): cell growth arrest@G1/S phase
viability at 1.56 µM [8, 11]: 99.1%
viability at 3.125 µM [8, 11]: 79.8%
viability at 6.25 µM [8, 11]: 65.7%
viability at 12.5 µM [8, 11]: 42.9%
viability at 25 µM [8, 11]: 28.3%
viability at 50 µM [8, 11]: 21.2%
viability at 100 µM [8, 11]: 13.7%
IC50 ([8]; MCF7, read-out: In-vitro cytotoxicity IC50 (µM) MCF-7): 11.6 ± 0.9 µM
viability at 1.56 µM [9, 10]: 88.6%
viability at 3.125 µM [9, 10]: 76.1%
viability at 6.25 µM [9, 10]: 53.7%
viability at 12.5 µM [9, 10]: 32.8%
viability at 25 µM [9, 10]: 24.5%
viability at 50 µM [9, 10]: 16%
viability at 100 µM [9, 10]: 8.2%
IC50 ([9]; read-out: In-vitro cytotoxicity IC50 (µM) Hela): 7.94 ± 0.5 µM

SMILES: O=C(CN1CCN(c2nn3c(-c4ccccc4)nnc3c3ccccc23)CC1)Nc1ccc(F)cc1 [Compound VII]
IC50 (MCF-7): 3400 nM
IC50 (Hela): 2000 nM

SMILES: COc1c(C(=O)/C=C/c2ccc([N+](=O)[O-])cc2)c(O)cc2occc12 [Compound V]
IC50 (VEGFR-2): 1 nM
